This note sets out measurements from patent US6069156A, “Indole derivatives as cGMP-PDE inhibitors” (Fujisawa Pharmaceutical Co., Ltd., priority 1995, dated 2000).

pIC50: −log10 of the molar value. Counter-ions that a name gives are not always drawn. Like-named read-outs stand apart in the source and are kept apart here.

Test [1] deals with Vascular smooth muscle cells (vSMCs). Put plainly: vSMC Proliferation ([3H]-thymidine, PDGF-stimulated). As to conditions: Rattus norvegicus, PDGF 10 ng/ml stimulation. It counts as cell-based, male Wistar rats. The method, then:
Vascular smooth muscle cells (vSMCs) were prepared from explants of the thoracic aorta of 10 week old male Wistar rats by a modification of the method of Ross (J. Cell Biol., 50: 172, 1971). They were cultured in DMEM containing 10% fetal calf serum, 1% penicillin G and 1% streptomycin at 37° C. in a 95% air, 5% CO2 humidified atmosphere. vSMCs were seeded in 24 well plates and cultured in the presence of 10% fetal calf serum for 3 days. Cell growth then was arrested by transfer to serum free DMEA. After 24 hours, each test compound or vehicle was added to medium for 1 hour, and then cells were stimulated by PDGF (10 ng/ml). After 24 hours of additional incubation, [^3 H]-thymidine (1 μCi/ml) was added during the final 4 hours of incubation time, and trichloracetic acid insoluble radioactivity was assayed by liquid scintillation counting.

Test [2] has as its target T1, cGMP-PDE (Homo sapiens, UniProt O76074).
T1 construct: cGMP-PDE was separated from other isozymes in human platelets; from tissue; host or cells: human platelets
Description: cGMP-phosphodiesterase (PDE) Assay (human platelets). The format is biochemical. How it is done:
cGMP-phosphodiesterase (PDE) Assay
cGMP-PDE was separated from other isozymes in human platelets by a modification of the method of Thompson et. al. (Cyclic Nucleotide Phosphodiesterase (PDE), in Methods of Enzymatic analysis, Vol 4, p127-234, 1984). In enzyme inhibition assays, the test compounds were dissolved in 10% DMSO and then diluted with assay buffer (50 mM Tris-HCl, pH 8.0, 0.1 mM dithiothreitol, 2 mM EGTA and 10 u/ml snake venom), at final concentrations ranging from 10^-10 to 10^-6 M. Assays were performed at 0.1 μM substrate ([^3 H]-cGMP) concentration, at 30° C. for 10 minutes using enzyme dilutions which gave 10-20% hydrolysis of substrate. Each assay was initiated by addition of substrate and terminated by addition of anion exchange resin (Dowex 1-X8, 25 μg/mg) followed by centrifugation for 10 minutes (3000 rpm, at 4° C.). Radioactivity of supernatant (^3 H-GMP) was assayed by liquid scintillation counting.

Setting [3] is: 0.1 μM [3H]-cGMP, 30° C., 10 minutes, read-out: IC50.

Regarding `CCCc1c(C(=O)C(C)C)c2ccc(C(=O)NOC)cc2n1Cc1ccccc1Cl` [24-(1), 1-(2-Chlorobenzyl)-3-isobutyryl-O-methyl-2-propylindole-6-carbohydroxamic acid], the pIC50 in test [1] and in test [2] was above 7.00 throughout.

For `CCCc1c(C(=O)C(C)C)c2cc(C(N)=O)ccc2n1Cc1ccccc1Cl` [75-(4), 1-(2-Chlorobenzyl)-3-isobutyryl-2-propylindole-5-carboxamide], in test [2], the pIC50 was above 7.00.

Consider `CCCc1c(C(=O)CO)c2ccc(C(N)=O)cc2n1Cc1ccccc1Cl` [Example 60, 1-(2-chlorobenzyl)-3-hydroxyacetyl-2-propylindole-6-carboxamide], for which the pIC50 in test [1] and in test [2] was above 7.00 each time.

As to `CCCc1c(C(=O)CN2CCOCC2)c2ccc(C(N)=O)cc2n1Cc1ccccc1Cl` [75-(10), 1-(2-Chlorobenzyl)-3-morpholinoacetyl-2-propylindole-6-carboxamide], the pIC50 in test [2] is above 7.00.

In the case of `CC(=O)c1c(CC(C)C)c2ccc(C(N)=O)cc2n1Cc1ccccc1Cl` [Example 18, 2-Acetyl-1-(2-chlorobenzyl)-3-isobutylindole-6-carboxamide], in test [2] (setting [3]), the pIC50 was above 7.00.

For the compound `CCCc1c(C(=O)C(C)C)c2ccc(C(N)=O)cc2n1Cc1ccc(Cl)s1` [27-(5), 1-[(5-Chlorothien-2-yl)methyl]-3-isobutyryl-2-propylindole-6-carboxamide], the pIC50 in test [1] and in test [2] was above 7.00 each time.

As to `CC=Cc1c(C(=O)C(C)C)c2ccc(C(N)=O)cc2n1Cc1ccccc1Cl` [75-(29), 1-(2-Chlorobenzyl)-3-isobutyryl-2-(1-propenyl)indole-6-carboxamide], the pIC50 in test [1] and in test [2] was above 7.00 throughout.

Consider `CCCc1c(C(=O)Cc2ccccc2)c2ccc(C(N)=O)cc2n1Cc1ccccc1Cl` [38-(2), 1-(2-Chlorobenzyl)-3-phenylacetyl-2-propylindole-6-carboxamide], for which the pIC50 in test [1] and in test [2] was above 7.00 throughout.

`CCCc1c(C(=O)C(C)C)c2ccc(C(N)=O)cc2n1Cc1ccccc1C#N` [37-(6), 1-(2-Cyanobenzyl)-3-isobutyryl-2-propylindole-6-carboxamide] had a pIC50 in test [2] above 7.00.

Take `CCC(O)c1c(C(=O)C(C)C)c2ccc(C(N)=O)cc2n1Cc1ccccc1Cl` (stereo not shown) [75-(30), 1-(2-Chlorobenzyl)-2-(1-hydroxypropyl)-3-isobutyrylindole-6-carboxamide]: the pIC50 in test [1] and in test [2] was above 7.00 each time.

For the compound `CCCc1c(C#N)c2ccc(C(N)=O)cc2n1Cc1ccccc1Cl` [37-(11), 1-(2-Chlorobenzyl)-3-cyano-2-propylindole-6-carboxamide], the pIC50 in test [2] (setting [3]) is above 7.00.

Regarding `CCCc1c(C(=O)C(C)C)c2ccc(C(N)=O)cc2n1Cc1ccccc1C(=O)OC` [25-(2), 3-Isobutyryl-(2-methoxycarbonylbenzyl)-2-propylindole-6-carboxamide], the negative-log IC50 (pIC50) in test [2] is above 7.00.

The compound `CCCc1c(C(=O)C(C)C)c2ccc(C(N)=O)cc2n1Cc1cccc(Cl)c1` [27-(2), 1-(3-Chlorobenzyl)-3-isobutyryl-2-propylindole-6-carboxamide] had a pIC50 in test [2] above 7.00.

On to `CCCc1c(C(=O)C(C)C)c2ccc(NC=O)cc2n1Cc1ccccc1Cl` [Example 58, 1-(2-chlorobenzyl)-6-formamido-3-isobutyryl-2-propylindole], for which the pIC50 in test [2] was above 7.00.

In test [2], `CCCc1c(C(=O)C(C)C)c2ccc(C(N)=O)cc2n1Cc1ccccn1` [Example 39, 3-isobutyryl-2-propyl-1-(2-pyridylmethyl)indole-6-carboxamide hydrochloride] gave a pIC50 above 7.00.

Turning to `NC(=O)c1ccc2c3c(n(Cc4ccccc4Cl)c2c1)C(=O)CC3` [75-(39), 4-(2-Chlorobenzyl)-3-oxo-1,2,3,4-tetrahydrocyclopent[b]indole-6-carboxamide], the negative-log IC50 (pIC50) in test [2] (setting [3]) is above 7.00.

On to `CCc1c(CC)n(Cc2ccccc2Cl)c2cc(C(N)=O)ccc12` [37-(17), 1-(2-Chlorobenzyl)-2,3-diethylindole-6-carboxamide], for which, in test [2] (setting [3]), the pIC50 was above 7.00.

In the case of `CCCc1c(C=O)c2ccc(C(=O)NS(=O)(=O)c3ccccc3)cc2n1Cc1ccccc1Cl` [22-(6), 1-(2-Chlorobenzyl)-3-formyl-N-phenylsulfonyl-2-propylindole-6-carboxamide], the pIC50 in test [1] and in test [2] was above 7.00 in each case.

`CCC(=O)c1c(CC)c2ccc(C(N)=O)cc2n1Cc1ccccc1Cl` [Example 21, 1-(2-Chlorobenzyl)-3-ethyl-2-propionylindole-6-carboxamide]: the pIC50 in test [2] (setting [3]) is above 7.00.

In test [2], `CCCc1c(C(=O)C(C)C)c2ccc(C(N)=O)cc2n1Cc1ccc2sccc2c1` [75-(23), 1-(Benzo[b]thiophen-5-ylmethyl)-3-isobutyryl-2-propylindole-6-carboxamide] gave a pIC50 above 7.00.

For the compound `CCc1c(C(O)C(C)C)c2ccc(C(N)=O)cc2n1Cc1ccccc1Cl` (stereo not shown) [Example 69, 1-(2-Chlorobenzyl)-2-ethyl-3-(1-hydroxy-2-methylpropyl)indole-6-carboxamide], the pIC50 in test [2] (setting [3]) was above 7.00.

For `NC(=O)c1ccc2c(C(=O)O)cn(Cc3ccccc3Cl)c2c1` [Example 63, 6-carbamoyl-1-(2-chlorobenzyl)indole-3-carboxylic acid], the pIC50 in test [2] was above 7.00.

For `COCc1c(C(=O)C(C)C)c2ccc(C(N)=O)cc2n1Cc1ccccc1Cl` [37-(14), 1-(2-Chlorobenzyl)-3-isobutyryl-2-methoxymethylindole-6-carboxamide], the pIC50 in test [1] and in test [2] was above 7.00 throughout.

In the case of `CCCc1c(C(=O)C(C)C)c2ccc(C(=O)NO)cc2n1Cc1ccccc1Cl` [Example 23, 1-(2-chlorobenzyl)-3-isobutyryl-2-propylindole-6-carbohydroxamic acid], the pIC50 in test [1] and in test [2] was above 7.00 each time.

In test [2], `CCCc1c(C(=O)C(C)C)c2ccc(C(N)=O)cc2n1Cc1ccc(Cl)cc1` [Example 26, 1-(4-chlorobenzyl)-3-isobutyryl-2-propylindole-6-carboxamide] gave a pIC50 above 7.00.

For the compound `N#Cc1ccc2c3c(n(Cc4ccccc4Cl)c2c1)C(=O)CCC3` [67-(2), 9-(2-Chlorobenzyl)-8-oxo-5,6,7,8-tetrahydrocarbazole-2-carbonitrile], the pIC50 in test [1] and in test [2] (setting [3]) was above 7.00 each time.

In turn, `Cc1c(C(=O)C(C)C)c2ccc(C(N)=O)cc2n1Cc1c(Cl)sc2ccccc12` [75-(21), 1-(2-Chlorobenzo[b]thiophen-3-ylmethyl)-3-isobutyryl-2-methylindole-6-carboxamide] had a pIC50 in test [2] above 7.00.

As for `CCc1c(Cl)n(Cc2ccccc2Cl)c2cc(C(N)=O)ccc12` [75-(35), 2-Chloro-1-(2-chlorobenzyl)-3-ethylindole-6-carboxamide], in test [2] (setting [3]), the pIC50 is above 7.00.

Regarding `CC(=O)C=Cc1cn(Cc2ccccc2Cl)c2cc(C(N)=O)ccc12` [75-(38), 1-(2-Chlorobenzyl)-3-(3-oxo-1-butenyl)indole-6-carboxamide], the pIC50 in test [2] (setting [3]) is above 7.00.

Consider `CCC(=O)c1c(CC)n(Cc2ccccc2Cl)c2cc(C(N)=O)ccc12` [Example 15, 1-(2-Chlorobenzyl) -2-ethyl-3-propionylindole-6-carboxamide], for which the pIC50 in test [1] and in test [2] was above 7.00 throughout.

In test [2], `CCCc1c(C(=O)C=C(C)C)c2ccc(C(N)=O)cc2n1Cc1ccccc1Cl` [73-(40), 1-(2-Chlorobenzyl)-3-(3-methyl-2-butenoyl)-2-propylindole-6-carboxamide] had a pIC50 above 7.00.

With `CCCc1c(C(=O)CC)c2ccc(C(N)=O)cc2n1Cc1ccccc1Cl` [Example 9, 1-(2-Chlorobenzyl)-3-propionyl-2-propylindole-6-carboxamide], the negative-log IC50 (pIC50) in test [1] and in test [2] was above 7.00 in each case.

In the case of `CCCc1c(C(=O)C(C)C)c2ccc(C(N)=O)cc2n1Cc1ccccc1I` [37-(3), 1-(2-Iodobenzyl)-3-isobutyryl-2-propylindole-6-carboxamide], in test [2], the pIC50 is above 7.00.

Compound `CCCc1c(C(N)=O)c2ccc(C(N)=O)cc2n1Cc1ccccc1Cl` [75-(15), 1-(2-Chlorobenzyl)-2-propylindole-3,6-dicarboxamide] gave a pIC50 in test [2] above 7.00.

In test [2], `CCCc1c(C(=O)C(C)C)c2ccc(C(N)=O)cc2n1Cc1ccc2ccccc2c1` [75-(27), 3-Isobutyryl-2-propyl-1-(2-naphthylmethyl)indole-6-carboxamide] showed a pIC50 above 7.00.

As for `CCCc1c(C(C)=NO)c2ccc(C(N)=O)cc2n1Cc1ccccc1Cl` [Example 70, 1-(2-chlorobenzyl)-3-(1-hydroxyiminoethyl)-2-propylindole-6-carboxamide], the pIC50 in test [2] (setting [3]) was above 7.00.

In test [2], `CCCc1c(C(=O)C(C)C)c2ccc(C(=O)OC)cc2n1Cc1ccccc1Cl` [Example 4, Methyl 1-(2-chlorobenzyl)-3-isobutyryl-2-propylindole-6-carboxylate] showed a pIC50 above 7.00.
